Measured values as given in patent US8927717B1, “Thiochromeno[2,3-c]quinolin-12-one derivatives, preparation method and application thereof” (National Defense Medical Center, priority 2014, dated 2015).

What was measured:
HOP-92 = assay type: cell-based; conditions: HOP-92; 10^−5 molar
HL-60(TB) = assay type: cell-based; conditions: 10^−5 molar; for Growth percent: HL-60(TB)
CCRF-CEM = assay type: cell-based; conditions: 10^−5 molar; for Growth percent: CCRF-CEM
HCC-2998 = assay type: cell-based; conditions: 10^−5 molar
RPMI-8226 = assay type: cell-based; conditions: 10^−5 molar; for Growth percent: RPMI-8226
SK-OV-3 = assay type: cell-based; conditions: 10^−5 molar; for Growth percent: SK-OV-3
SK-MEL-5 = assay type: cell-based; conditions: 10^−5 molar; for Growth percent: SK-MEL-5
NCI-H460 = assay type: cell-based; conditions: 10^−5 molar; for Growth percent: NCI-H460
OVCAR-4 = assay type: cell-based; conditions: 10^−5 molar; for Growth percent: OVCAR-4
COLO 205 = assay type: cell-based; conditions: 10^−5 molar; for Growth percent: COLO 205
BT-549 = assay type: cell-based; conditions: 10^−5 molar; for Growth percent: BT-549
SK-MEL-2 = assay type: cell-based; conditions: SK-Mel-2; 10^−5 molar
CAKI-1 = assay type: cell-based; conditions: 10^−5 molar; for Growth percent: CAKI-1
M14 = assay type: cell-based; conditions: 10^−5 molar; for Growth percent: M14
UACC-257 = assay type: cell-based; conditions: 10^−5 molar
HCT-116 = assay type: cell-based; conditions: 10^−5 molar; for Growth percent: HCT-116
PC-3 = assay type: cell-based; conditions: 10^−5 molar; for Growth percent: PC-3
SF-539 = assay type: cell-based; conditions: SF-539; 10^−5 molar
IGROV1 = assay type: cell-based; conditions: 10^−5 molar
OVCAR-3 = assay type: cell-based; conditions: Ovarian cancer; 10^−5 molar; 48 hours; SRB

O=c1c2cc(Cl)ccc2sc2c(NCCc3ccccc3)nc3ccccc3c12 [Compound N30, 10-Chloro-6-(phenethylamino)-12H-thiochromeno[2,3-c]quinolin-12-one]
Growth percent (HOP-92): 73.02%
Growth percent (HL-60(TB)): 105.68%
Growth percent (CCRF-CEM): 114.29%
Growth percent (HCC-2998; HCC-2998): 113.77%
Growth percent (RPMI-8226): 77.36%
Growth percent (SK-OV-3): 102.16%
Growth percent (SK-MEL-5): 89.49%
Growth percent (NCI-H460): 95.11%
Growth percent (OVCAR-4): 79.53%
Growth percent (COLO 205): 100.02%
Growth percent (BT-549): 106.85%
Growth percent (SK-MEL-2): 106.33%
Growth percent (CAKI-1): 81.04%
Growth percent (M14): 97.97%
Growth percent (UACC-257; UACC-257): 109.29%
Growth percent (HCT-116): 85.77%
melting point: 151 to 152 °C
Growth percent (PC-3): 87.25%
Growth percent (SF-539): 97.86%

O=c1c2cc(Cl)ccc2sc2c(NCc3ccc4c(c3)OCO4)nc3ccccc3c12 [Compound N27, 6-((Benzo[d][1,3]dioxol-5-ylmethyl)amino)-10-chloro-12H-thiochromeno[2,3-c]quinolin-12-one]
Growth percent (HOP-92): 45.39%
Growth percent (HL-60(TB)): 112.12%
Growth percent (CCRF-CEM): 88.86%
Growth percent (RPMI-8226): 96.35%
Growth percent (SK-OV-3): 82.87%
Growth percent (SK-MEL-5): 79.86%
Growth percent (NCI-H460): 76.71%
Growth percent (OVCAR-4): 53.73%
Growth percent (COLO 205): 87.63%
Growth percent (BT-549): 111.06%
Growth percent (SK-MEL-2): 95.57%
Growth percent (CAKI-1): 75.09%
Growth percent (M14): 94.93%
Growth percent (IGROV1; IGROV1): 67.81%
Growth percent (HCT-116): 69.98%
melting point: 205 to 206 °C
Growth percent (PC-3): 78.54%
Growth percent (SF-539): 77.12%

CC(C)CC(C)Nc1nc2ccccc2c2c(=O)c3cc(Cl)ccc3sc12 (stereo not shown) [Compound N13, 10-Chloro-6-((4-methylpentan-2-yl)amino)-12H-thiochromeno[2,3-c]quinolin-12-one]
Growth percent HL-60(TB) (HL-60(TB); Leukemia, 48 hours, SRB): 103.96%
Growth percent CCRF-CEM (CCRF-CEM; Leukemia, 48 hours, SRB): 98.57%
Growth percent HCC-2998 (HCC-2998; Colon cancer, 48 hours, SRB): 112.26%
Growth percent RPMI-8226 (RPMI-8226; Leukemia, 48 hours, SRB): 97.78%
Growth percent SK-OV-3 (SK-OV-3; Ovarian cancer, 48 hours, SRB): 86.70%
Growth percent SK-MEL-5 (SK-MEL-5; Melanoma, 48 hours, SRB): 90.71%
Growth percent NCI-H460 (NCI-H460; Non-small cell lung cancer, 48 hours, SRB): 95.17%
Growth percent OVCAR-4 (OVCAR-4; Ovarian cancer, 48 hours, SRB): 86.07%
Growth percent COLO 205 (COLO 205; Colon cancer, 48 hours, SRB): 93.45%
Growth percent BT-549 (BT-549; Breast cancer, 48 hours, SRB): 103.61%
Growth percent CAKI-1 (CAKI-1; Renal cancer, 48 hours, SRB): 86.38%
Growth percent M14 (M14; Melanoma, 48 hours, SRB): 94.27%
Growth percent IGROV1 (IGROV1; Ovarian cancer, 48 hours, SRB): 74.77%
Growth percent UACC-257 (UACC-257; Melanoma, 48 hours, SRB): 114.40%
Growth percent HCT-116 (HCT-116; Colon cancer, 48 hours, SRB): 90.30%
melting point: 176 to 177 °C
Growth percent PC-3 (PC-3; Prostate cancer, 48 hours, SRB): 86.33%
Growth percent OVCAR-3 (OVCAR-3): 115.22%
